Seven compounds from patent US8354400B2, “Benzoxazole compounds and methods of use” (Eisai R&D Co., Ltd., priority 2008, dated 2013) can be followed below.

“Also recorded” adds a separate entry of the source.

One experiment concerns the target T1, human TLR9 (Homo sapiens, UniProt Q9NR96).
T1 construct: expressed in transfected cells; host or cells: HEK293 (ATCC No. CRP-1573 [sic])
T1 sequence (Q9NR96 26-1032): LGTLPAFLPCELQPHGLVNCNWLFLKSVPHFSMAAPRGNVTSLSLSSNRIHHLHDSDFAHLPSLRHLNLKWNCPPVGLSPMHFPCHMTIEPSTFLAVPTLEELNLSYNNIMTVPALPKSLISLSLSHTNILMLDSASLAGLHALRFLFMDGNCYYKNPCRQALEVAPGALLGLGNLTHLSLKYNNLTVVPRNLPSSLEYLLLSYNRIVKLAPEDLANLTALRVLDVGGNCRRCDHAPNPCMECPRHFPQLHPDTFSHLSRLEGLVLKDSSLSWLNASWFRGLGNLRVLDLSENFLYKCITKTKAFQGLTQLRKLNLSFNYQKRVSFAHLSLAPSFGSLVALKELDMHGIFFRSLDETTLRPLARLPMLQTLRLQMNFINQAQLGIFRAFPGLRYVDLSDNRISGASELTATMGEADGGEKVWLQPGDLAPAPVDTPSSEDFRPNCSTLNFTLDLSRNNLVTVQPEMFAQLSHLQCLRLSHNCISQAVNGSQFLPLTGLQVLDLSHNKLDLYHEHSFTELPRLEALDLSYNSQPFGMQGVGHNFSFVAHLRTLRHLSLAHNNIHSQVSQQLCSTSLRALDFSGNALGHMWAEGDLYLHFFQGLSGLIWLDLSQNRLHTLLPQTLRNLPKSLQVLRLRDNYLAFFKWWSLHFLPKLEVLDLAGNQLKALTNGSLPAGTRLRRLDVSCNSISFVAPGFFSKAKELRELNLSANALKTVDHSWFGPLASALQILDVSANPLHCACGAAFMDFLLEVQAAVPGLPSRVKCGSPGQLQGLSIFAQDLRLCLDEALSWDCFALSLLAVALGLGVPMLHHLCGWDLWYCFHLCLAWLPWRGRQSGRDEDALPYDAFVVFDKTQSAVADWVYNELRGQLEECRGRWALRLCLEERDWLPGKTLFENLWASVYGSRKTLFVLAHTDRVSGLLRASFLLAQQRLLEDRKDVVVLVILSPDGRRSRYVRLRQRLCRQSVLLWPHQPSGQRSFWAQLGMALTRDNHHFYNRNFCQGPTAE
In words: Primary assay: HEK/TLR9 activation (NF-kB luciferase reporter, Oligo CpG 2006 stimulation). The class given is cell-based. To be noted: HEK293 transfected with human TLR9 and NF-kB luciferase; compound 30 min before Oligo CpG 2006; overnight; read-out: HEK/TLR9 IC50. An excerpt: A. Primary Assay. The primary assay involved transfecting human embryonic kidney epithelial (HEK) cells with TLR9. More specifically, HEK293 […] cells (ATCC No. CRP-1573, American Type Culture Collection, Manassas, Va.) were transfected with pcDNA3.1D/V5-His-TOPO® plasmid (Invitrogen, Carlsbad, Calif.) encoding human TLR9 (directly inserted as a Tag polymerase-amplified PCR product) and firefly luciferase under the control of three NF-kB binding sites contained in the E-selectin-1 promoter, which was cloned into a pGL3-Enhancer Vector (Promega Corp, Madison, Wis.). Each compound was added to cells 30 min. before stimulation with Oligo CpG 2006, a synthetic phosphorothioate oligonucleotide (Hartmann et al., J Immunol. 164:1617-24 (2000)), with nucleotide sequence 5′-TCGTCGTTTTGTCGTTTTGTCGTT-3′ (SEQ ID NO:1). The cells were incubated overnight at 37° C. The luciferase substrate Steady-Glo® (Promega) was added to the wells, and luminescence was measured to determine the extent of TLR9-driven gene activation. The luminescence data was used to calculate an IC50 for each sample. The IC50 is defined as the concentration of compound that suppresses the luminescence to 50% of that observed in the absence of compound, in other words, with full stimulation.
Background: In a reporter assay the amount or activity of a reporter protein is the signal.

A further experiment has as its target T2, human TLR7 (Homo sapiens, UniProt Q9NYK1).
T2 construct: expressed in transfected cells; host or cells: HEK cell line (HEK293, as in the primary assay)
T2 sequence (Q9NYK1 27-1049): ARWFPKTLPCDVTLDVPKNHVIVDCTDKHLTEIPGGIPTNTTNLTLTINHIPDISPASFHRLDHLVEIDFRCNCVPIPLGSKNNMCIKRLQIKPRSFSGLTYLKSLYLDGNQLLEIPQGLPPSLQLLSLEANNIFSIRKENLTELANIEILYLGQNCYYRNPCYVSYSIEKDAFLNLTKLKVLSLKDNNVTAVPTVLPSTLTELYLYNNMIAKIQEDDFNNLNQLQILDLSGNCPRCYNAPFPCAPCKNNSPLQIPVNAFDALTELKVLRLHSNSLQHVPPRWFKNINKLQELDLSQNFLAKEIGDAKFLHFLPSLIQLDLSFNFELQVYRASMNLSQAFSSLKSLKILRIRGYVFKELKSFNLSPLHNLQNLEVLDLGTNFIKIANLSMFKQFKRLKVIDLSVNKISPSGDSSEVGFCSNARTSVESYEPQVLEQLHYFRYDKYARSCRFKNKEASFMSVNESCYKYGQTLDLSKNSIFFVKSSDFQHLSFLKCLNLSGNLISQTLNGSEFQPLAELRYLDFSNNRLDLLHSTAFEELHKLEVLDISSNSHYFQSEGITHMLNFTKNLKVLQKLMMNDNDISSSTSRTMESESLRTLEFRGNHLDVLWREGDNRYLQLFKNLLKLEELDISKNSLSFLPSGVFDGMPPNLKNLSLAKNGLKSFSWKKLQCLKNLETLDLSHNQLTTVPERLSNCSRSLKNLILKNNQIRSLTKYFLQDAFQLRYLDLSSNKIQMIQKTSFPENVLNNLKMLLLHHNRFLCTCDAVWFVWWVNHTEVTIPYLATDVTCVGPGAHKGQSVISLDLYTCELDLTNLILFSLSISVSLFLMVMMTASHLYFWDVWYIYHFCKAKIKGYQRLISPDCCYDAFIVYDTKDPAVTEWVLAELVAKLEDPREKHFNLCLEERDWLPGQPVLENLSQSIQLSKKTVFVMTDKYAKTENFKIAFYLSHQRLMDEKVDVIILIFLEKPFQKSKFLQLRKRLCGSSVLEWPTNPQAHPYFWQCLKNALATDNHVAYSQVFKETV
Nature of the experiment: HEK/TLR7 activation assay (R848 stimulation). To be noted: HEK cells transfected with human TLR7. The class given is cell-based. The method, then: (1) HEK/TLR7Activation Assay: The same compounds were tested in the same way as the primary assay with the following differences. The plasmid used to transfect the HEK cell line encoded for human TLR7 instead of TLR9, and R848 was used to stimulate the cells instead of Oligo CpG 2006.

Experiment [1] relates to serum IL-6 after s.c. oligo CpG 1668 challenge. Nature of the experiment: In vivo short term CpG stimulation assay (serum IL-6). Further details: species or system mice. To be noted: Mus musculus, po, 2 h, mice, oral in water, 20 mg/kg, s.c. 30 micrograms oligo CpG 1668 within 90 minutes, serum two hours later; repeat assays separated by commas; read-out: Percent short-term IL-6 suppression. As for the experimental part: Short Term CpG Stimulation Assay: Compounds identified as having potency in the HEK/TLR9 and splenocyte CpG 1668 assays described in Example 9, above, were tested in an in vivo short term CpG stimulation assay. Mice were orally administered compound in water, and challenged within 90 minutes by subcutaneous (s.c.) injection of 30 micrograms of oligo CpG 1668. Two hours later serum was taken and assayed for IL-6 using ELISA analysis. Results from assays repeated on different dates are set forth as multiple numbers separated by commas.

Another experiment concerns MRL/lpr mice. In words: MRL/lpr spontaneous lupus model, Experiment 2. The class given is in vivo. The settings on record: for serum anti-dsDNA levels: MRL/lpr mice, Experiment 2, doses per Table 4. The method, then:
In this SLE experiment, dosing, groups were as described in Table 4 below. Two dose levels of Compound 23 were compared to HCQ and cyclophosphamide (Cytoxan®). HCQ and cyclophosphamide are currently used in the treatment of cutaneous and systemic lupus, respectively. […] Sera were assayed at a 1:600 dilution in PBS. (Mouse Anti-dsDNA Total Ig Qualitative ELISA kits, Alpha Diagnostic International). Dosing was conducted by either oral (p.o.) or intraperitoneal (i.p.) administration.

The subject of experiment [2] is mouse spleen IL-6 production in response to Oligo CpG 1668. In words: Splenocyte CpG 1668 assay (IL-6 ELISA). The experiment is classed as cell-based. To be noted: mouse splenocytes, Oligo CpG 1668, 72 hrs. As for the experimental part:
(2) Splenocyte CpG 1668 Assay: Some of the compounds tested in the primary assay were also assayed for suppression of mouse spleen IL-6 production in response to stimulation with Oligo CpG 1668, a synthetic phosphorothioate oligonucleotide (Krieg et al. Nature. 374:546-9 (1995)), with nucleotide sequence [NT] (SEQ ID NO:2). Each compound was added to dissociated splenocytes before addition of stimulatory oligonucleotide. Cells were stimulated in culture for 72 hrs and the supernatant was removed for ELISA analysis of IL-6 level. Here the IC50 is defined as the concentration of compound that suppresses cytokine production to 50% of that observed in the absence of compound, i.e., full stimulation.
Background: An ELISA detects its analyte on a solid surface through an enzyme-linked reagent.

Experiment [3] has as its system dissociated mouse splenocytes. Nature of the experiment: Spleen CellTiter-Glo viability assay. The experiment is classed as cell-based. The settings on record: Splenocyte, 72 hours, viability (ATP). The method, then:
(3) Spleen CT Glo Assay: To determine if compounds had adverse effects on living cells, dissociated mouse splenocytes were incubated with some of the compounds for 72 hours. At the end of the incubation Celliter-Glo™ reagent (Promega Corporation, Madison, Wis.) was added and luminescence was read per manufacturer's instructions. This reagent measures ATP as an indication of cell metabolism. Dead cells will not produce signal. IC50 is defined as the concentration of compound that suppresses viability to 50% of that observed in the absence of compound. The few compounds that measurably affected viability did so at concentrations far above those that affected cytokine release in response to TLR9 stimulation.

With `CN(C)CCCOc1ccc2nc(-c3ccc(OCCCN(C)CCCN(C)C)cc3)oc2c1` [Compound 34], the IC50 came to 4 nM on human TLR9 and 800 nM against human TLR7. In experiment [1], the inhibition in vivo at 20 mg/kg is 26%.
For the compound `O=P1(N(CCCl)CCCl)NCCCO1` (stereo not shown) [Cyclophosphamide, cyclophosphamide], the “difference in serum anti-dsDNA vs. vehicle by ANOVA” value in the experiment on MRL/lpr mice (8 and 12 week dosing points) is on record as “statistically significant”. Also, in the experiment with MRL/lpr mice, the “serum anti-dsDNA levels” value was “consistent suppression; also recorded: suppressed anti-dsDNA”.
Take `COC[C@H]1CCCN1CCCOc1ccc(-c2nc3ccc(OCCCN4CCC[C@@H]4COC)cc3o2)cc1` [Compound 26]: the figures for the IC50 (in experiment [2]; on human TLR9; in experiment [3]) were 42 nM, 12.4 nM and more than 10 µM, respectively. For the same compound, the inhibition in vivo at 20 mg/kg in experiment [1] came out at 81%.
`CCN(CCO)CCCC(C)Nc1ccnc2cc(Cl)ccc12` (stereo not shown) [hydroxychloroquine]: the “serum anti-dsDNA levels” value in the experiment on MRL/lpr mice is “no detectable effect”.
As to `CN(C)CCCOc1ccc2nc(-c3ccc(OCCCN(C)CCOCCOCCN(C)C)cc3)oc2c1` [Compound 35], the IC50 in experiment [2] worked out at 40 nM; at human TLR9, 29 nM; against human TLR7, 1400 nM. Further, in experiment [1], the inhibition in vivo at 20 mg/kg came to 38%.
In the case of `CCCN(C)CCCOc1ccc(-c2nc3ccc(OCCCN(C)CCC)cc3o2)cc1` [Compound 29], the IC50 is 42 nM in experiment [2], 19.3 nM at human TLR9, 780 nM on human TLR7 and 10.4 µM in experiment [3].
For `CCN(CC)CCN(CC)CCCOc1ccc(-c2nc3ccc(OCCCN(CC)CCN(CC)CC)cc3o2)cc1` [Compound 32], the IC50 in experiment [2] is 10 nM; on human TLR9 it was 9.6 nM; against human TLR7 it was 580 nM; in experiment [3] it was more than 10 µM.
